# Literature values, collected in patent publication US12697339B2, “Composition and methods of treatment using synergistically-enhanced supplementation” (Xygenyx Inc., priority 2023, dated 2026).
# Non-standard residues stand in square brackets, D forms with d. Residues, ends and D or L forms follow the SMILES beside them. Cit = NC(=O)NCCC[C@H](N)C(=O)O
# Columns and labels:
# skin [1] = details: as penetration enhancer for transdermal drugs
# [2] = studies using mice
# [3] = tested on: wide dynamic range neurons in the ventroposterolateral nucleus of the thalamus; details: believed
# [4] = in vivo
# skin [5] = details: topical formulations, within four weeks of treatment
# skin [6] = details: topical application, concentrations 0.5-5%
# [7] = compared to α-tocopherol with biological activity factor 1.0
# [8] = even when dietary intake occurs in equal portions
# [9] = in vivo; remark: listed apart in the source
molecule,measurement,setting,value
CC12CCC(CC1)C(C)(C)O2 [Eucalyptol],factor of increase in drug uptake via the transdermal route,skin [1],more than 10
"CC(CN)C(=O)O [L-BAIBA, L-beta-aminoisobutyric acid]",tolerated dose,[2],10-100 mg/kg of bodyweight
CC(C)[C@@H]1CC[C@@H](C)C[C@H]1O [Menthol],factor of increase in drug uptake via the transdermal route,skin [1],≥ 10
"CCCCCc1cc(O)c2c(c1)OC(C)(C)C1CCC(C)=CC21 (stereo not drawn) [THC, Δ-9-tetrahydrocannabinol]",power in mediating pain relative to morphine,[3],ten times more powerful than morphine
CCNC(=O)CC[C@H](N)C(=O)O [Theanine],dose considered safe and well-tolerated,[4],up to 400 mg per day
CC[C@H](C)[C@H](NC(=O)[C@H](CC(=O)O)NC(=O)[C@@H](N)CCCCN)C(=O)N[C@@H](CCCNC(N)=O)C(N)=O [Tripeptide-10 citrulline] (H-KDI[Cit]-NH2),improvement of suppleness,skin [5],≤ 54%
C=CCCCCCCCCC(=O)N[C@@H](Cc1ccccc1)C(=O)O [Undecylenoyl phenylalanine],time of treatment to skin lightening effects,skin [6],≥ 7 days
Cc1c(C)c2c(c(C)c1O)CC[C@@](C)(CCC[C@H](C)CCC[C@H](C)CCCC(C)C)O2 [α-tocopherol],reduction of risk of coronary disease,"dietary supplementation, doses up to 400 IU/day",up to 34%
same,reduction of risk of developing neurodegenerative diseases such as Alzheimer's Syndrome or dementia,"dietary supplementation, doses up to 400 IU/day, controlled trials",≤ 24%
same,reduction in the development of age-related cataracts,"in combination with 10-20 mg β-carotene and 400-500 mg vitamin C, doses around 400-500 IU",23%
Cc1cc(O)c(C)c2c1O[C@](C)(CCC[C@H](C)CCC[C@H](C)CCCC(C)C)CC2 [β-tocopherol],relative biological activity,[7],0.5
Cc1c(O)cc2c(c1C)O[C@](C)(CCC[C@H](C)CCC[C@H](C)CCCC(C)C)CC2 [γ-tocopherol],relative biological activity,[7],0.1
same,concentration in vivo relative to α-tocopherol,[8],roughly 10%
Cc1cc(O)cc2c1O[C@](C)(CCC[C@H](C)CCC[C@H](C)CCCC(C)C)CC2 [δ-tocopherol],relative biological activity,[7],0.03
HGH: hormone comprising a peptide chain that is synthesized in the pituitary gland,biological half-life,[9],10-20 minutes
